Square brackets hold non-standard residues; d marks the D form. Peptide text beside a SMILES is read from it. 2Nal = N[C@@H](Cc1ccc2ccccc2c1)C(=O)O

For series [1], the system named is Eschericha coli (ATCC 25922), Staphylococcus aureus (ATCC 25923, 29213, and 19636), and Pseudomonas aeruginosa (ATCC 27853 and 9027). Briefly: Salt resistance test: antibacterial activity assay (NCCLS microdilution, MIC90). The class given is cell-based. The note with it: for antimicrobial activity: at MHB medium or the high-salt condition, FIG. 1a/1b; for antimicrobial activity compared with reference peptide (S1 or S2-Nal): MHB medium or the high-salt condition, comparison in words; for antimicrobial activity at 300 mM NaCl: FIG. 1b. The source says:
Antibacterial activity assay was used to determine the antimicrobial activity of S1, Nal-S1, S1-Nal-Nal, S1-Nal-Nal-Nal, S1-W, S1-W-W, S1-K-K-K, S2-Nal, S2-F-Nal, S2-Nal-Nal at different salt concentration. Eschericha coli (ATCC 25922), Staphylococcus aureus (ATCC 25923, 29213, and 19636), and Pseudomonas aeruginosa (ATCC 27853 and 9027) were used in the Example.
Microdilution method of National Committee for Clinical Laboratory Standards (NCCLS) was used to determine the minimal inhibition concentration (MIC). The MIC as used herein is a minimum inhibitory concentration required to inhibit the growth of 90% of organisms (MIC90).
In the Microdilution method, 1 μl of peptide solution (5,000 μg/ml to 78.1 μg/ml) and 99 μl of bacteria suspension were mixed and added into 96 wells plates. After 16 hours of incubation at 37° C., the optical density (O.D.) value at 600 nm was detected by ELISA (Thermo Max, Molecular Devices, Sunnyvale, Calif.). The Muller-Hinton Broth (MHB) medium without peptide and bacterial suspension were used as negative control and positive control, separately. The MIC value means a minimum inhibitory concentration required to inhibit the growth (equal or more than 90%) of bacteria.

The nature of a further series: in vitro. The class given is in vitro ADME, bovine. The method, then:
Serum stability of the peptides was determined in 25% (v/v) aqueous bovine calf serum (HyClone, cat. AUE-34962). Firstly, peptides were dissolved in serum at a concentration of 150 μg/mL and incubated at 37° C. After 45 min on ice for precipitating serum proteins, the serum was centrifuged at 12,000 g for 10 min at 4° C., and then the supernatants were lyophilized. Remaining amount of the peptides was determined by RP-HPLC.

Series [2] deals with human red blood cells (hRBCs).
Experimental: The hemolysis of peptides was determined by evaluating the effect of peptides on human red blood cells (hRBCs). hRBCs were obtained by washing the heparinized blood with PBS buffer three times, and stored at physiological saline with 10% phosphate buffer. The peptides were dissolved in PBS buffer, and then 50 μl of 10% (v/v) hRBCs was added to the PBS buffer at 37° C. for 1 hour of incubation (the final volume concentration of the hRBCs was 5%). After 1 hour of incubation, the hBRCs were centrifuged, and the hemolysis ratio was determined by detecting the absorbance values at 540 nm using a spectrophotometer. The hemolysis ratio of hRBCs without treatment was defined as 0%, and the hemolysis ratio of hRBCs treated with 1% Triton-X 100 was defined as 100%.

Turning to `CC(=O)N[C@@H](CCCCN)C(=O)N[C@@H](CCCCN)C(=O)N[C@@H](Cc1ccc2ccccc2c1)C(=O)N[C@@H](CCCNC(=N)N)C(=O)N[C@@H](CCCCN)C(=O)N[C@@H](Cc1ccc2ccccc2c1)C(=O)N[C@@H](CC(C)C)C(=O)N[C@@H](C)C(=O)N[C@@H](CCCCN)C(=O)N[C@@H](CCCCN)C(N)=O` [Nal-S1, KK-Nal-RK-Nal-LAKK] (Ac-KK[2Nal]RK[2Nal]LAKK-NH2; C-terminus assumed), in series [1], the antimicrobial activity result was “diminished”. In “in vitro”, the “degree of protection of the peptides from degradation in bovine calf serum (rank order)” value (shortened to “degree of protection of the peptides”) was “S1-Nal-Nal-Nal>S2-Nal-Nal=S2-Nal>S1-Nal-Nal>S1-Nal>S2-F-Nal>S1-KKK>S1>Nal-S1=S1-W>S1-WW”.
For `CC(=O)N[C@@H](CCCCN)C(=O)N[C@@H](CCCCN)C(=O)N[C@@H](Cc1c[nH]c2ccccc12)C(=O)N[C@@H](CCCNC(=N)N)C(=O)N[C@@H](CCCCN)C(=O)N[C@@H](Cc1c[nH]c2ccccc12)C(=O)N[C@@H](CC(C)C)C(=O)N[C@@H](C)C(=O)N[C@@H](CCCCN)C(=O)N[C@@H](CCCCN)C(=O)N[C@@H](Cc1ccc2ccccc2c1)C(N)=O` [Peptide S1-Nal, KKWRKWLAKK-Nal] (Ac-KKWRKWLAKK[2Nal]-NH2; C-terminus assumed), the “antimicrobial activity compared with reference peptide (S1 or S2-Nal)” value in series [1] was “better than S1”. Besides, the “degree of protection of the peptides” value in “in vitro” was “S1-Nal-Nal-Nal>S2-Nal-Nal=S2-Nal>S1-Nal-Nal>S1-Nal>S2-F-Nal>S1-KKK>S1>Nal-S1=S1-W>S1-WW”.
As for `CC(=O)N[C@@H](CCCCN)C(=O)N[C@@H](CCCCN)C(=O)N[C@@H](Cc1c[nH]c2ccccc12)C(=O)N[C@@H](CCCNC(=N)N)C(=O)N[C@@H](CCCCN)C(=O)N[C@@H](Cc1c[nH]c2ccccc12)C(=O)N[C@@H](CC(C)C)C(=O)N[C@@H](C)C(=O)N[C@@H](CCCCN)C(=O)N[C@@H](CCCCN)C(=O)N[C@@H](Cc1ccc2ccccc2c1)C(=O)N[C@@H](Cc1ccc2ccccc2c1)C(N)=O` [Peptide S1-Nal-Nal, KKWRKWLAKK-Nal-Nal] (Ac-KKWRKWLAKK[2Nal][2Nal]-NH2; C-terminus assumed), in series [2], the “hemolytic activity compared with other peptides” value is given as “higher hemolytic activity than other peptides”. Further, in series [1], the “antimicrobial activity compared with reference peptide (S1 or S2-Nal)” value is given as “better than S1” and the antimicrobial activity entry is recorded as “still retained the antimicrobial activities”. Besides, the “degree of protection of the peptides” value in the series “in vitro” is “S1-Nal-Nal-Nal>S2-Nal-Nal=S2-Nal>S1-Nal-Nal>S1-Nal>S2-F-Nal>S1-KKK>S1>Nal-S1=S1-W>S1-WW”.
`CC(=O)N[C@@H](CCCCN)C(=O)N[C@@H](Cc1c[nH]c2ccccc12)C(=O)N[C@@H](Cc1c[nH]c2ccccc12)C(=O)N[C@@H](CCCCN)C(=O)N[C@@H](Cc1ccccc1)C(=O)N[C@@H](Cc1ccc2ccccc2c1)C(N)=O` [Peptide S2-F-Nal, KWWK-F-Nal] (Ac-KWWKF[2Nal]-NH2; C-terminus assumed): in series [1], the “antimicrobial activity at 300 mM NaCl” value is “still retained their antimicrobial activities”, the “antimicrobial activity compared with reference peptide (S1 or S2-Nal)” value is recorded as “higher than that of S2-Nal” and the antimicrobial activity entry is “diminished”. Besides, the “degree of protection of the peptides” value in the series “in vitro” was “S1-Nal-Nal-Nal>S2-Nal-Nal=S2-Nal>S1-Nal-Nal>S1-Nal>S2-F-Nal>S1-KKK>S1>Nal-S1=S1-W>S1-WW”.
In the case of `CC(=O)N[C@@H](CCCCN)C(=O)N[C@@H](Cc1c[nH]c2ccccc12)C(=O)N[C@@H](Cc1c[nH]c2ccccc12)C(=O)N[C@@H](CCCCN)C(=O)N[C@@H](Cc1ccc2ccccc2c1)C(N)=O` [Peptide S2-Nal, KWWK-Nal] (Ac-KWWK[2Nal]-NH2; C-terminus assumed), the antimicrobial activity result in series [1] is listed as “diminished”. Besides, the “degree of protection of the peptides” value in the series “in vitro” is listed as “S1-Nal-Nal-Nal>S2-Nal-Nal=S2-Nal>S1-Nal-Nal>S1-Nal>S2-F-Nal>S1-KKK>S1>Nal-S1=S1-W>S1-WW”.
With `CC(=O)N[C@@H](CCCCN)C(=O)N[C@@H](Cc1c[nH]c2ccccc12)C(=O)N[C@@H](Cc1c[nH]c2ccccc12)C(=O)N[C@@H](CCCCN)C(=O)N[C@@H](Cc1ccc2ccccc2c1)C(=O)N[C@@H](Cc1ccc2ccccc2c1)C(N)=O` [Peptide S2-Nal-Nal, KWWK-Nal-Nal] (Ac-KWWK[2Nal][2Nal]-NH2; C-terminus assumed), in series [1], the “antimicrobial activity at 300 mM NaCl” value is given as “still retained their antimicrobial activities”, the “antimicrobial activity compared with reference peptide (S1 or S2-Nal)” value was “higher than that of S2-Nal” and the antimicrobial activity result is “diminished”. For the same compound, in “in vitro”, the “degree of protection of the peptides” value is recorded as “S1-Nal-Nal-Nal>S2-Nal-Nal=S2-Nal>S1-Nal-Nal>S1-Nal>S2-F-Nal>S1-KKK>S1>Nal-S1=S1-W>S1-WW”.
Turning to `CC(=O)N[C@@H](CCCCN)C(=O)N[C@@H](CCCCN)C(=O)N[C@@H](Cc1c[nH]c2ccccc12)C(=O)N[C@@H](CCCNC(=N)N)C(=O)N[C@@H](CCCCN)C(=O)N[C@@H](Cc1c[nH]c2ccccc12)C(=O)N[C@@H](CC(C)C)C(=O)N[C@@H](C)C(=O)N[C@@H](CCCCN)C(=O)N[C@@H](CCCCN)C(=O)N[C@@H](Cc1ccc2ccccc2c1)C(=O)N[C@@H](Cc1ccc2ccccc2c1)C(=O)N[C@@H](Cc1ccc2ccccc2c1)C(N)=O` [S1-Nal-Nal-Nal, KKWRKWLAKK-Nal-Nal-Nal] (Ac-KKWRKWLAKK[2Nal][2Nal][2Nal]-NH2; C-terminus assumed), the “hemolytic activity compared with other peptides” value in series [2] is listed as “higher hemolytic activity than other peptides”. Further, in series [1], the “antimicrobial activity compared with reference peptide (S1 or S2-Nal)” value is “better than S1” and the antimicrobial activity entry is listed as “still retained the antimicrobial activities”. Besides, in “in vitro”, the “degree of protection of the peptides” value is “S1-Nal-Nal-Nal>S2-Nal-Nal=S2-Nal>S1-Nal-Nal>S1-Nal>S2-F-Nal>S1-KKK>S1>Nal-S1=S1-W>S1-WW”. Further, the fraction remaining at 8 h, 150 μg/mL in the series “in vitro” (bovine, serum) was roughly 100%.
With “Ac-KKWRKWLAKK-NH2 [Peptide S1, Ac-KKWRKWLAKK-NH2]”, in series [1], the antimicrobial activity entry is “diminished”. Further, the “degree of protection of the peptides” value in “in vitro” is reported as “S1-Nal-Nal-Nal>S2-Nal-Nal=S2-Nal>S1-Nal-Nal>S1-Nal>S2-F-Nal>S1-KKK>S1>Nal-S1=S1-W>S1-WW”.
For the compound “Ac-KKWRKWLAKKKKK-NH2 (C-terminus assumed) [Peptide S1-K-K-K, KKWRKWLAKKKKK]”, the antimicrobial activity result in series [1] is “diminished”. Also, the “degree of protection of the peptides” value in “in vitro” is on record as “S1-Nal-Nal-Nal>S2-Nal-Nal=S2-Nal>S1-Nal-Nal>S1-Nal>S2-F-Nal>S1-KKK>S1>Nal-S1=S1-W>S1-WW”.
In the same order, the values of “Ac-KKWRKWLAKKW-NH2 (C-terminus assumed) [Peptide S1-W, KKWRKWLAKKW]” are “diminished” and “S1-Nal-Nal-Nal>S2-Nal-Nal=S2-Nal>S1-Nal-Nal>S1-Nal>S2-F-Nal>S1-KKK>S1>Nal-S1=S1-W>S1-WW”.
On the same counts, the results for “Ac-KKWRKWLAKKWW-NH2 (C-terminus assumed) [Peptide S1-W-W, KKWRKWLAKKWW]” are “diminished” and “S1-Nal-Nal-Nal>S2-Nal-Nal=S2-Nal>S1-Nal-Nal>S1-Nal>S2-F-Nal>S1-KKK>S1>Nal-S1=S1-W>S1-WW”.

The values above are taken from patent US9873719B2, “Salt and protease-resistance of antimicrobial peptide and the manufacture thereof” (priority 2013, dated 2018).
